Legend:
[1] = test system: zona pellucida of immature oocytes; test: sperm-zona pellucida binding assay (ZBA); assay type: cell-based, cynomolgus macaque
sperm = sperm percent motility and progression scoring; assay type: cell-based, cynomolgus macaque; details: for effect on percentage of motile sperm and sperm progression: zona binding studies, 1.5 mg/ml, pre- or post-capacitation treatment
Description: Four adult male cynomolgus macaques which were caged individually at the California Regional Primate Research Center (CRPRC) in compliance with the Federal Animal Welfare Act and the NIH Guidelines for Care and Use of Laboratory Animals. The animals were maintained on a 12L:12D light cycle at 25-27° C. and were given a diet of Purina monkey chow and water ad libitum. Semen samples were collected by electroejaculation, e.g., as described in Sarason et al., The use of nonmetal electrodes in ejaculation of restrained but unanesthetized macaques, (1991) J. Med. Primatol., 20:122-125, into 15 ml centrifuge tubes containing 5 ml of Hepes-buffered BWW maintained at room temperature (RT). After 15-30 min, the coagulum was removed, the semen samples were further diluted with an additional 5 ml of Hepes-buffered BWW containing 3 mg/ml bovine serum albumin (BSA) and then concentrated into a 1 ml pellet by centrifugation at 300×g for 10 minutes. LSA (previously dissolved in hepes-buffered BWW salts) was added to half of the pellet to give a final concentration of 1.5 mg LSA/ml of sperm. An equal volume of hepes-buffered BWW salts was added to the other half of the pellet. Both aliquots were incubated at room temperature for 40 minutes and then washed and capacitated, e.g., as described in Tollner T L, et al., Soybean trypsin inhibitor as a probe for the acrosome reaction in motile cynomolgus macaque sperm (2000) Zygote 8:127-137. Briefly, sperm were centrifuged through 3.5 ml of 80% Percoll for 25 minutes at 400 g. The supernatant containing Percoll and any remaining sperm was removed and the sperm pellet was resuspended in bicarbonate-buffered BWW, e.g., as described in Overstreet et al., Penetration of human spermatozoa into the human zona pellucida and the zona-free hamster egg: a study of fertile donors and infertile patients, (1980), Fertil. Steril., 33:534-542; and, Overstreet et al., In vitro capacitation of human spermatozoa after passage through a column of cervical mucus, (1980) Fert. Steril., 34:604-606, containing 30 mg/ml of BSA. Sperm were washed two more times by centrifugation at 300 g for 10 minutes and dilution in this medium. […] Following activation, 200 sperm per treatment were scored for percent motility at 200× magnification with phase-contrast optics using a BH-2 series Olympus microscope. Progression was assessed with a 0-4 rating system (0=no progressive sperm; 1=1-25% of motile sperm have forward (space gaining) progressive motility; 2=26-50% of motile sperm have forward progressive motility; 3=51-75% of motile sperm have forward progressive motility; 4=76-100% of motile sperm have forward progressive motility).

mature oocytes = test: in vitro fertilization (IVF) with treated sperm; assay type: cell-based, cynomolgus macaque; details: 1.5 mg/ml
[2] = oral; cited from earlier work
[3] = 1.5 mg/ml added post-capacitation (PC, Post-C), after activation
[4] = 1.5 mg/ml added pre-capacitation (Pre-C, pre-wash PW), prior to washing through Percoll and overnight incubation

| Substance | binding of treated sperm to the zona pellucida of immature oocytes (in words) ([1]; treatment post-capacitation (PC) or pre-wash (PW), FIG. 3) | inhibition of sperm-zona binding as compared to controls [1, 3] | inhibition of sperm-zona binding as compared to controls [1, 4] | effect on percentage of motile sperm and sperm progression (sperm) | fertilization in IVF trials (mature oocytes; post-capacitation (Post-C, PC) treatment) | fertilization in IVF trials (mature oocytes; pre-capacitation (prewash, PW, Pre-C) treatment) | LD50 [2] | effect on sperm motility in IVF (sperm; IVF sperm preparations) | percentage of sperm developing hyperactivated motility patterns consistent with capacitation (sperm; LSA-treated and control sperm) |
| --- | --- | --- | --- | --- | --- | --- | --- | --- | --- |
| polyanetholesulfonic acid [PASA] | inhibited their binding to the zona pellucida | – | – | – | – | – | – | – | – |
| Fucoidan [reference compound] | – | 91.5% | 36% | No motility changes were observed | – | – | – | – | – |
| Lignosulfonic acid [LSA] | – | 92.5% | 82.5% | Neither the percentage of motile sperm or sperm progression were effected | blocked fertilization | blocked fertilization | > 40000 mg/kg | no difference between treatments on sperm motility | > 75% |

Reference: patent US20030134803A1, “Use of sulfonated compounds as a barrier contraceptive” (The Regents of the University of California, priority 2002, published 2003)
